Experiments:
Experiment in all cases: relative viability (nuclei count vs DMSO), 5 days (fraction); higher = more cells survive
AZD6482 + Dasatinib = compound: Cc1cc([C@@H](C)Nc2ccccc2C(=O)O)c2nc(N3CCOCC3)cc(=O)n2c1 [AZD6482] + Cc1nc(Nc2ncc(C(=O)Nc3c(C)cccc3Cl)s2)cc(N2CCN(CCO)CC2)n1 [Dasatinib] (partner 0.075 µM)
Summary of the method: (§1)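 Nuclei were stained with Hoechst during a one-step fixation (final 0.05% Triton X-100, 1% formaldehyde, 1 ug/ml Hoechst) carried out 5 days after dosing, then counted on 4× images. The cells, lung cancer lines in 1536-well plates, had been dosed by pin tool the day after seeding with one drug alone or a fixed anchor-drug dose plus five library-drug doses (not always all listed) in √10 steps. Relative viability is the nuclei count in treated wells divided by that in vehicle wells, and each value is the median of duplicate plates.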

AZD6482 + Luminespib = compound: Cc1cc([C@@H](C)Nc2ccccc2C(=O)O)c2nc(N3CCOCC3)cc(=O)n2c1 [AZD6482] + CCNC(=O)c1noc(-c2cc(C(C)C)c(O)cc2O)c1-c1ccc(CN2CCOCC2)cc1 [Luminespib] (partner 0.01 µM)
Summary of the method: as §1

[1] = compound: COc1cc2nc(N3CCCN(C)CC3)nc(NC3CCN(Cc4ccccc4)CC3)c2cc1OC + CC(C)C[C@H](NC(=O)[C@H](Cc1ccccc1)NC(=O)c1cnccn1)B(O)O [Bortezomib] (partner 0.002 µM)
Summary of the method: as §1

[2] = compound: COc1cc2nc(N3CCCN(C)CC3)nc(NC3CCN(Cc4ccccc4)CC3)c2cc1OC + Nc1ncn([C@H]2C[C@H](O)[C@@H](CO)O2)c(=O)n1 [Decitabine] (partner 2 µM)
Summary of the method: as §1

PC-3 [JPC-3] showed a relative viability (AZD6482 + Dasatinib; first compound 0.08 µM) of 0.887, a relative viability (AZD6482 + Dasatinib; first compound 0.253 µM) of 0.959 and a relative viability (AZD6482 + Dasatinib; first compound 0.8 µM) of 0.898. It also gave a relative viability (AZD6482 + Dasatinib; first compound 2.53 µM) of 0.769, a relative viability (AZD6482 + Dasatinib; first compound 8 µM) of 0.791 and a relative viability (AZD6482 + Luminespib; first compound 0.08 µM) of 0.634. It also gave a relative viability (AZD6482 + Luminespib; first compound 0.253 µM) of 0.689, a relative viability (AZD6482 + Luminespib; first compound 0.8 µM) of 0.655 and a relative viability (AZD6482 + Luminespib; first compound 2.53 µM) of 0.509. It also gave a relative viability (AZD6482 + Luminespib; first compound 8 µM) of 0.588, a relative viability ([1]; first compound 0.2 µM) of 0.793 and a relative viability ([1]; first compound 0.6325 µM) of 0.787. The relative viability ([1]; first compound 2 µM) was 0.962, the relative viability ([1]; first compound 6.325 µM) was 0.675 and the relative viability ([2]; first compound 0.2 µM) was 0.863. It also gave a relative viability ([2]; first compound 0.6325 µM) of 0.805, a relative viability ([2]; first compound 2 µM) of 0.718 and a relative viability ([2]; first compound 6.325 µM) of 0.674.
In the case of PC-14, the relative viability (AZD6482 + Dasatinib; first compound 0.08 µM) is reported as 0.245, the relative viability (AZD6482 + Dasatinib; first compound 0.253 µM) is reported as 0.281 and the relative viability (AZD6482 + Dasatinib; first compound 0.8 µM) is reported as 0.239. For the same cell line, the relative viability (AZD6482 + Dasatinib; first compound 2.53 µM) was 0.197, the relative viability (AZD6482 + Dasatinib; first compound 8 µM) was 0.16 and the relative viability (AZD6482 + Luminespib; first compound 0.08 µM) was 0.156. It also gave a relative viability (AZD6482 + Luminespib; first compound 0.253 µM) of 0.16, a relative viability (AZD6482 + Luminespib; first compound 0.8 µM) of 0.145 and a relative viability (AZD6482 + Luminespib; first compound 8 µM) of 0.142. The relative viability ([1]; first compound 0.2 µM) was 0.984, the relative viability ([1]; first compound 0.6325 µM) was 0.72 and the relative viability ([1]; first compound 2 µM) was 0.981. It also gave a relative viability ([1]; first compound 6.325 µM) of 0.461, a relative viability ([2]; first compound 0.2 µM) of 0.193 and a relative viability ([2]; first compound 0.6325 µM) of 0.223. For the same cell line, the relative viability ([2]; first compound 2 µM) was 0.241 and the relative viability ([2]; first compound 6.325 µM) was 0.0753.
Cell Line RERF-LC-KJ has a relative viability (AZD6482 + Dasatinib; first compound 0.08 µM) of 0.586, a relative viability (AZD6482 + Dasatinib; first compound 0.253 µM) of 0.77 and a relative viability (AZD6482 + Dasatinib; first compound 0.8 µM) of 0.762. For the same cell line, the relative viability (AZD6482 + Dasatinib; first compound 2.53 µM) was 0.706, the relative viability (AZD6482 + Dasatinib; first compound 8 µM) was 0.682 and the relative viability (AZD6482 + Luminespib; first compound 0.08 µM) was 1.16. The relative viability (AZD6482 + Luminespib; first compound 0.253 µM) was 1.29, the relative viability (AZD6482 + Luminespib; first compound 0.8 µM) was 1.27 and the relative viability (AZD6482 + Luminespib; first compound 2.53 µM) was 0.978. For the same cell line, the relative viability (AZD6482 + Luminespib; first compound 8 µM) was 0.987, the relative viability ([1]; first compound 0.2 µM) was 1.12 and the relative viability ([1]; first compound 0.6325 µM) was 1.08. It also gave a relative viability ([1]; first compound 2 µM) of 1.14, a relative viability ([1]; first compound 6.325 µM) of 1.02 and a relative viability ([2]; first compound 0.2 µM) of 0.743. For the same cell line, the relative viability ([2]; first compound 0.6325 µM) was 0.699, the relative viability ([2]; first compound 2 µM) was 0.733 and the relative viability ([2]; first compound 6.325 µM) was 0.679.
For SK-LU-1, the relative viability (AZD6482 + Dasatinib; first compound 0.253 µM) was 0.165, the relative viability (AZD6482 + Dasatinib; first compound 0.8 µM) was 0.18 and the relative viability (AZD6482 + Dasatinib; first compound 2.53 µM) was 0.152. It also gave a relative viability (AZD6482 + Dasatinib; first compound 8 µM) of 0.165, a relative viability (AZD6482 + Luminespib; first compound 0.253 µM) of 0.189 and a relative viability (AZD6482 + Luminespib; first compound 0.8 µM) of 0.203. It also gave a relative viability (AZD6482 + Luminespib; first compound 2.53 µM) of 0.145, a relative viability (AZD6482 + Luminespib; first compound 8 µM) of 0.168 and a relative viability ([1]; first compound 0.2 µM) of 1.14. The relative viability ([1]; first compound 0.6325 µM) was 1.19, the relative viability ([1]; first compound 2 µM) was 1.5 and the relative viability ([1]; first compound 6.325 µM) was 1.07. The relative viability ([2]; first compound 0.2 µM) was 0.644, the relative viability ([2]; first compound 0.6325 µM) was 0.706 and the relative viability ([2]; first compound 2 µM) was 0.703. The relative viability ([2]; first compound 6.325 µM) was 0.618.
For SW 1573, the relative viability (AZD6482 + Dasatinib; first compound 0.08 µM) was 0.459, the relative viability (AZD6482 + Dasatinib; first compound 0.253 µM) was 0.357 and the relative viability (AZD6482 + Dasatinib; first compound 0.8 µM) was 0.328. It also gave a relative viability (AZD6482 + Dasatinib; first compound 2.53 µM) of 0.239, a relative viability (AZD6482 + Dasatinib; first compound 8 µM) of 0.206 and a relative viability (AZD6482 + Luminespib; first compound 0.08 µM) of 0.218. It also gave a relative viability (AZD6482 + Luminespib; first compound 0.253 µM) of 0.219, a relative viability (AZD6482 + Luminespib; first compound 0.8 µM) of 0.246 and a relative viability (AZD6482 + Luminespib; first compound 2.53 µM) of 0.194. The relative viability (AZD6482 + Luminespib; first compound 8 µM) was 0.206, the relative viability ([1]; first compound 0.2 µM) was 1.16 and the relative viability ([1]; first compound 0.6325 µM) was 0.893. For the same cell line, the relative viability ([1]; first compound 2 µM) was 0.882, the relative viability ([1]; first compound 6.325 µM) was 0.853 and the relative viability ([2]; first compound 0.2 µM) was 0.542. It also gave a relative viability ([2]; first compound 0.6325 µM) of 0.48, a relative viability ([2]; first compound 2 µM) of 0.402 and a relative viability ([2]; first compound 6.325 µM) of 0.182.

— the supplement of paper PMC10307832
